Measured values from the supplement of paper PMC10307832.

Key:
Experiment in all cases: relative viability (nuclei count vs DMSO), 5 days (fraction); higher = more cells survive
[1] = compound: Cn1cc(-c2cnc3ccc4ccc(CS(=O)(=O)NCc5ccccn5)cc4c(=O)c3c2)cn1 [MK-8033] + O=C(CCCCCCC(=O)Nc1ccccc1)NO [Vorinostat] (partner 1 µM)
Summary of the method: (§1)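 Lung cancer cell lines were pin-tool dosed in 1536-well plates on the day after seeding, with either a lone drug or a fixed anchor-drug dose plus five library-drug doses (not always all listed) in √10 steps. Nuclei were counted on 4× images after 5 days. Relative viability is the ratio of treated-well to vehicle-well nuclei counts, with each value a median of duplicate plates.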

[2] = compound: CC[C@@H](C)CNCC(=O)N1CCC2=C([C@@H]1COC3=CC=CC(=C3)C)C=CS2 [RU-SKI 43] + CCNC(=O)c1noc(-c2cc(C(C)C)c(O)cc2O)c1-c1ccc(CN2CCOCC2)cc1 [Luminespib] (partner 0.01 µM)
Summary of the method: as §1

[3] = compound: Cn1cc(-c2cnc3ccc4ccc(CS(=O)(=O)NCc5ccccn5)cc4c(=O)c3c2)cn1 [MK-8033] + CS(=O)(=O)N1CCN(Cc2cc3nc(-c4cccc5[nH]ncc45)nc(N4CCOCC4)c3s2)CC1 [Pictilisib] (partner 1 µM)
Summary of the method: as §1

[4] = compound: CCc1c2c(nc3ccc(OC(=O)N4CCC(N5CCCCC5)CC4)cc13)-c1cc3c(c(=O)n1C2)COC(=O)[C@]3(O)CC [Irinotecan] + O=C(CCCCCCC(=O)Nc1ccccc1)NO [Vorinostat] (partner 1 µM)
Summary of the method: as §1

Cell Line | relative viability ([1]; first compound 0.02 µM) | relative viability ([1]; first compound 0.06325 µM) | relative viability ([1]; first compound 0.2 µM) | relative viability ([1]; first compound 0.6325 µM) | relative viability ([1]; first compound 2 µM) | relative viability ([2]; first compound 0.1 µM) | relative viability ([2]; first compound 0.3162 µM) | relative viability ([2]; first compound 1 µM) | relative viability ([2]; first compound 3.162 µM) | relative viability ([2]; first compound 10 µM) | relative viability ([3]; first compound 0.02 µM) | relative viability ([3]; first compound 0.06325 µM) | relative viability ([3]; first compound 0.2 µM) | relative viability ([3]; first compound 0.6325 µM) | relative viability ([3]; first compound 2 µM) | relative viability ([4]; first compound 2 µM) | relative viability ([4]; first compound 6.325 µM) | relative viability ([4]; first compound 20 µM) | relative viability ([4]; first compound 0.6325 µM)
EKVX | 0.484 | 0.72 | 0.734 | 0.746 | 0.66 | 0.939 | 0.809 | 0.758 | 0.932 | 0.833 | 0.433 | 0.409 | 0.442 | 0.438 | 0.476 | 0.52 | 0.43 | 0.398 | –
EMC-BAC-2 | 0.619 | 0.346 | 0.421 | 0.454 | 0.476 | 1.18 | 1.26 | 1.32 | 1.16 | 1.19 | 0.59 | 0.412 | 0.478 | 0.502 | 0.483 | 0.297 | 0.283 | 0.225 | 0.224
EPLC-272H | 0.434 | 0.332 | 0.38 | 0.422 | 0.551 | 0.467 | 0.182 | 0.73 | 0.423 | 0.278 | 0.3 | – | 0.298 | 0.303 | 0.294 | 0.389 | 0.357 | 0.254 | 0.428
H3255 | 0.847 | – | 0.768 | 0.81 | 0.742 | 0.928 | 0.951 | 1.23 | 0.76 | 0.849 | 0.558 | 0.299 | 0.48 | 0.577 | 0.441 | 0.782 | 0.343 | 0.311 | –
HARA | 0.549 | – | 0.553 | 0.521 | 0.542 | 0.687 | 0.765 | 0.918 | 0.974 | 0.672 | 0.445 | 0.395 | 0.335 | 0.382 | 0.419 | 0.146 | 0.122 | 0.135 | –
HCC-15 | 0.898 | 0.767 | 0.752 | 0.738 | 0.798 | 0.427 | 0.249 | 0.478 | 0.285 | 0.419 | 0.829 | 0.632 | 0.698 | 0.767 | 0.754 | 0.333 | 0.252 | 0.197 | 0.452
HCC-44 | 1.06 | 1.14 | 1.09 | 1.2 | 1.07 | 1.02 | – | 1.16 | 1.02 | 0.894 | 0.623 | 0.409 | 0.542 | 0.69 | 0.738 | 0.839 | 0.451 | 0.461 | 0.998
HCC-827 | 1.1 | – | 0.8 | 0.907 | 0.959 | 0.77 | 0.795 | 0.588 | 0.612 | 0.679 | 1.05 | 0.605 | 0.902 | 1.06 | 1.04 | 0.766 | 0.281 | 0.236 | 0.721
HOP-62 | 0.549 | 0.617 | 0.61 | 0.717 | 0.588 | 1 | 1.29 | 1.07 | 0.984 | 1.04 | 0.626 | 0.593 | 0.587 | 0.694 | 0.646 | 0.311 | 0.167 | 0.188 | 0.234
LC-2-ad | 0.786 | 0.651 | 0.618 | 0.75 | 0.659 | 0.987 | 1.1 | 1 | 1.04 | 0.956 | 0.43 | 0.461 | 0.453 | 0.572 | 0.486 | 0.373 | 0.283 | 0.181 | 0.312
LCLC-97TM1 | 0.662 | 0.48 | – | 0.825 | 0.761 | 0.902 | 0.927 | 0.876 | 0.898 | 0.85 | 0.187 | 0.148 | 0.199 | 0.215 | 0.19 | 0.248 | 0.114 | 0.129 | 0.104
LCLC-103H | 0.767 | 0.719 | 0.753 | 0.704 | 0.807 | 0.934 | 1.16 | 1.1 | 1.1 | 0.971 | 0.616 | 0.589 | 0.593 | 0.737 | 0.638 | 0.554 | 0.623 | 0.563 | 0.449
LK-2 | 0.245 | 0.259 | 0.397 | 0.307 | 0.357 | 0.182 | 0.168 | 0.171 | 0.189 | 0.177 | 0.629 | 0.452 | 0.535 | 0.621 | 0.606 | 0.264 | 0.256 | 0.242 | 0.363
LOU-NH91 | 0.923 | 0.638 | 0.835 | 0.86 | 0.92 | 0.307 | 0.304 | 0.431 | 0.36 | 0.317 | 0.531 | – | 0.498 | 0.548 | 0.506 | 0.875 | 0.315 | 0.147 | 0.837
LU99A | 0.511 | 0.495 | 0.565 | 0.53 | 0.433 | 0.195 | 0.24 | 0.211 | 0.259 | 0.192 | 0.331 | 0.275 | 0.318 | 0.29 | 0.32 | 0.169 | 0.124 | 0.127 | 0.305
LXF-289 | 0.843 | 0.615 | 0.737 | 0.755 | 0.812 | 0.729 | 0.853 | 0.852 | 0.751 | 0.568 | 0.789 | 0.64 | 0.721 | 0.734 | 0.823 | 0.688 | 0.41 | 0.195 | 0.724
NCI-H23 | 0.678 | 0.455 | 0.405 | – | 0.587 | 0.209 | 0.181 | 0.209 | – | 0.224 | 0.377 | 0.397 | 0.378 | 0.561 | 0.384 | 0.451 | 0.234 | 0.199 | 0.467
NCI-H322M | 1.04 | 0.774 | 0.829 | 0.966 | 0.888 | 0.858 | 0.932 | 0.877 | 0.884 | 0.727 | 0.511 | 0.438 | 0.496 | 0.464 | 0.523 | 0.886 | 0.732 | 0.32 | 0.734
NCI-H358 | 0.79 | 0.503 | 0.579 | 0.712 | 0.614 | 0.59 | 0.292 | 0.252 | 0.389 | 0.307 | 0.306 | 0.344 | 0.331 | 0.395 | 0.227 | 0.246 | 0.167 | 0.135 | 0.455
NCI-H441 | 0.795 | 0.738 | 0.823 | 0.706 | 0.732 | 0.285 | 0.324 | 0.436 | 0.316 | 0.375 | 0.45 | 0.446 | 0.416 | 0.446 | 0.444 | 0.305 | 0.233 | 0.197 | 0.443
NCI-H460 | 0.79 | 0.473 | 0.656 | 0.742 | 0.726 | 0.035 | 0.0298 | 0.0295 | 0.0325 | 0.0355 | 0.432 | 0.285 | 0.395 | 0.253 | 0.402 | 0.218 | 0.0779 | 0.0695 | 0.193
NCI-H520 | 0.636 | 0.689 | 0.777 | 0.705 | 0.657 | 0.191 | 0.18 | 0.257 | 0.209 | 0.216 | 0.28 | 0.221 | 0.295 | 0.283 | 0.323 | 0.394 | 0.278 | 0.162 | 0.442
NCI-H596 | 0.59 | 0.629 | 0.549 | 0.64 | 0.568 | 0.89 | 1.05 | 1.06 | 1.12 | 0.744 | 0.352 | 0.319 | 0.379 | 0.384 | 0.397 | 0.639 | 0.728 | 0.737 | 0.587
NCI-H647 | 0.633 | 0.378 | 0.527 | 0.598 | 0.75 | 0.163 | 0.325 | 0.236 | 0.123 | 0.221 | 0.444 | 0.421 | 0.398 | 0.41 | 0.471 | 0.398 | 0.139 | 0.0969 | 0.679
NCI-H650 | 0.512 | 0.5 | 0.496 | 0.428 | 0.371 | 0.748 | 0.861 | 0.901 | 0.852 | 0.727 | 0.849 | 0.824 | 0.871 | 0.723 | 0.834 | 0.303 | 0.134 | 0.203 | 0.329
NCI-H661 | 0.785 | 0.71 | 0.793 | 0.761 | 0.767 | 0.942 | 1.03 | 0.947 | 0.932 | 0.898 | 0.447 | – | 0.394 | 0.454 | 0.423 | 0.49 | 0.344 | 0.252 | 0.688
NCI-H727 | 1.2 | 0.981 | 1.11 | 1.16 | 1.13 | 0.365 | 0.393 | 0.26 | 0.362 | 0.664 | 0.52 | 0.451 | 0.354 | 0.5 | 0.273 | 0.731 | 0.616 | 0.641 | 1.03
NCI-H838 | 0.765 | 0.67 | 0.674 | 0.736 | 0.734 | 0.237 | 0.241 | 0.288 | 0.237 | 0.232 | 0.462 | 0.447 | 0.425 | 0.423 | 0.394 | 0.703 | 0.378 | 0.301 | 0.776
NCI-H1355 | 0.62 | 0.549 | 0.62 | 0.658 | 0.592 | 0.577 | 0.822 | 0.869 | 0.76 | 0.741 | 0.424 | 0.302 | 0.442 | 0.393 | 0.442 | 0.578 | 0.36 | 0.26 | –
